Holding throughout (assay type): in vivo
For one assay, the system named is Apera spica-venti. As to the kind of experiment: greenhouse test, pre-emergence treatment, APESV. The text has this:
(§1) The culture containers used were plastic flowerpots containing loamy sand with approximately 3.0% of humus as the substrate. The seeds of the test plants were sown separately for each species.
(§2) For the pre-emergence treatment, the active ingredients, which had been suspended or emulsified in water, were applied directly after sowing by means of finely distributing nozzles. The containers were irrigated gently to promote germination and growth and subsequently covered with transparent plastic hoods until the plants had rooted. This cover caused uniform germination of the test plants, unless this had been impaired by the active ingredients.
(§3) Depending on the species, the plants were kept at 10-25° C. or 20-35° C., respectively.
(§4) The test period extended over 2 to 4 weeks. During this time, the plants were tended, and their response to the individual treatments was evaluated.
(§5) Evaluation was carried out using a scale from 0 to 100. 100 means no emergence of the plants, or complete destruction of at least the aerial moieties, and 0 means no damage, or normal course of growth. A good herbicidal activity is given at values of at least 70 and a very good herbicidal activity is given at values of at least 85.
(§6) The plants used in the greenhouse experiments were of the following species: […]

Another assay concerns Alopecurus myosuroides. Kind of assay: greenhouse test, post-emergence treatment, ALOMY. The following applies: post-emergence.
Source text: as §1
(§7) For the post-emergence treatment, the test plants were first grown to a height of 3 to 15 cm, depending on the plant habit, and only then treated with the active ingredients which had been suspended or emulsified in water. For this purpose, the test plants were either sown directly and grown in the same containers, or they were first grown separately as seedlings and transplanted into the test containers a few days prior to treatment.
as §3, §4, §5, §6

The next assay relates to Avena fatua. Kind of assay: greenhouse test, post-emergence treatment, AVEFA.
Source text: as §1, §7, §3, §4, §5, §6

The test system of assay [1] is Echinocloa crus-galli. As to the kind of experiment: greenhouse test, post-emergence treatment, ECHCG. The following applies: post-emergence.
Source text: as §1, §7, §3, §4, §5, §6

The test system of assay [2] is Echinocloa crus-galli. Kind of assay: greenhouse test, pre-emergence treatment, ECHCG. Particulars: 2000 g/ha.
Source text: as §1, §2, §3, §4, §5, §6

Consider `COCc1nc(C2CC2)ncc1-c1ccccc1Cl` [Ex. 22], for which the herbicidal activity entry with Apera spica-venti (1000 g/ha), in the assay on Alopecurus myosuroides (1000 g/ha), in the assay on Avena fatua (1000 g/ha) and in the assay with Echinocloa crus-galli [1] (1000 g/ha) was “very good (a very good herbicidal activity is given at values of at least 85)” each time.
Consider `COC(=O)Cc1nc(C2CC2)ncc1-c1ccccc1Cl` [Ex. 32], for which the herbicidal activity entry in the assay with Apera spica-venti (2000 g/ha), in the assay with Echinocloa crus-galli [2], in the assay on Alopecurus myosuroides (2000 g/ha), with Avena fatua (2000 g/ha) and in the assay with Echinocloa crus-galli [1] (2000 g/ha) was “very good (a very good herbicidal activity is given at values of at least 85)” throughout.
`Brc1ccccc1-c1cnc(C2CC2)nc1-c1ccoc1` [Ex. 40]: the herbicidal activity result in the assay with Apera spica-venti (2000 g/ha), with Echinocloa crus-galli [2], in the assay with Alopecurus myosuroides (2000 g/ha) and in the assay on Avena fatua (2000 g/ha) was “very good (a very good herbicidal activity is given at values of at least 85)” throughout.
For `Fc1ccc(-c2cnc(C3CC3)nc2-c2cc3cc(Cl)ccc3o2)c(Cl)c1` [Ex. 44], the herbicidal activity entry with Avena fatua (1000 g/ha) and in the assay on Echinocloa crus-galli [1] (1000 g/ha) was “very good (a very good herbicidal activity is given at values of at least 85)” in each case.
Turning to `Fc1ccc(-c2cnc(C3CC3)nc2-c2ccco2)c(Cl)c1` [Ex. 54], the herbicidal activity entry in the assay on Apera spica-venti (1000 g/ha), in the assay with Avena fatua (1000 g/ha) and in the assay on Echinocloa crus-galli [1] (1000 g/ha) was “very good (a very good herbicidal activity is given at values of at least 85)” each time.
On to `COC(=O)Cc1nc(C2CC2)ncc1-c1ccccc1Br` [Ex. 67], for which the herbicidal activity entry in the assay on Apera spica-venti (2000 g/ha) was “very good (a very good herbicidal activity is given at values of at least 85)”; in the assay with Alopecurus myosuroides (2000 g/ha), “very good (a very good herbicidal activity is given at values of at least 85)”; in the assay on Avena fatua (2000 g/ha) it was “very good (a very good herbicidal activity is given at values of at least 85)”; in the assay on Echinocloa crus-galli [1] (2000 g/ha), “good (A good herbicidal activity is given at values of at least 70)”.
Regarding `Clc1ccccc1-c1cnc(C2CC2)nc1C=C1CCC1` [Ex. 71], the herbicidal activity result was “very good (a very good herbicidal activity is given at values of at least 85)” in the assay on Apera spica-venti (2000 g/ha); “very good (a very good herbicidal activity is given at values of at least 85)” in the assay with Echinocloa crus-galli [2]; “very good (a very good herbicidal activity is given at values of at least 85)” with Alopecurus myosuroides (2000 g/ha); “very good (a very good herbicidal activity is given at values of at least 85)” in the assay with Avena fatua (2000 g/ha); “good (A good herbicidal activity is given at values of at least 70)” in the assay with Echinocloa crus-galli [1] (2000 g/ha).
For the compound `CCOP(=O)(OCC)C(OS(C)(=O)=O)c1nc(C2CC2)ncc1-c1ccccc1Cl` (centres unmarked) [Ex. 89], the herbicidal activity result with Apera spica-venti (2000 g/ha) was “good (A good herbicidal activity is given at values of at least 70)”; in the assay with Alopecurus myosuroides (2000 g/ha) it was “very good (a very good herbicidal activity is given at values of at least 85)”; in the assay with Avena fatua (2000 g/ha) it was “good (A good herbicidal activity is given at values of at least 70)”.
With `C/C=C/c1nc(C2CC2)ncc1-c1ccccc1Cl` [Ex. 93], the herbicidal activity result in the assay with Apera spica-venti (2000 g/ha), with Echinocloa crus-galli [2], in the assay on Alopecurus myosuroides (2000 g/ha), in the assay on Avena fatua (2000 g/ha) and with Echinocloa crus-galli [1] (2000 g/ha) was “very good (a very good herbicidal activity is given at values of at least 85)” in each case.
On to `Clc1ccccc1-c1cnc(C2CC2)nc1/C=C/c1ccco1` [Ex. 94], for which the herbicidal activity entry in the assay with Apera spica-venti (2000 g/ha), in the assay on Alopecurus myosuroides (2000 g/ha) and in the assay on Avena fatua (2000 g/ha) was “very good (a very good herbicidal activity is given at values of at least 85)” each time.
`OC(Cc1nc(C2CC2)ncc1-c1ccccc1Cl)c1ccco1` (centres unmarked) [Ex. 106]: the herbicidal activity result in the assay on Apera spica-venti (2000 g/ha), in the assay with Echinocloa crus-galli [2], in the assay with Alopecurus myosuroides (2000 g/ha), in the assay on Avena fatua (2000 g/ha) and in the assay with Echinocloa crus-galli [1] (2000 g/ha) was “very good (a very good herbicidal activity is given at values of at least 85)” each time.
Turning to `Clc1ccccc1-c1cnc(C2CC2)nc1C=C1CCCC1` [Ex. 128], the herbicidal activity result in the assay with Apera spica-venti (2000 g/ha) was “very good (a very good herbicidal activity is given at values of at least 85)”; in the assay on Alopecurus myosuroides (2000 g/ha), “good (A good herbicidal activity is given at values of at least 70)”; in the assay on Avena fatua (2000 g/ha) it was “very good (a very good herbicidal activity is given at values of at least 85)”; in the assay on Echinocloa crus-galli [1] (2000 g/ha), “very good (a very good herbicidal activity is given at values of at least 85)”.
Turning to `CC(O)C(O)c1nc(C2CC2)ncc1-c1ccccc1Cl` (centres unmarked) [Ex. 147], the herbicidal activity entry in the assay on Apera spica-venti (2000 g/ha), with Echinocloa crus-galli [2], in the assay on Alopecurus myosuroides (2000 g/ha), in the assay with Avena fatua (2000 g/ha) and with Echinocloa crus-galli [1] (2000 g/ha) was “very good (a very good herbicidal activity is given at values of at least 85)” each time.
As to `COC(=O)C(C)c1nc(C2CC2)ncc1-c1cc(F)ccc1Cl` (centres unmarked) [Ex. 159], the herbicidal activity result with Apera spica-venti (2000 g/ha) is “good (A good herbicidal activity is given at values of at least 70)”; with Echinocloa crus-galli [2], “good (A good herbicidal activity is given at values of at least 70)”; with Alopecurus myosuroides (2000 g/ha) it was “very good (a very good herbicidal activity is given at values of at least 85)”; with Avena fatua (2000 g/ha), “very good (a very good herbicidal activity is given at values of at least 85)”.

The values are drawn from patent US11178871B2, “Herbicidal pyrimidine compounds” (BASF SE, priority 2016, dated 2021).
